Results from US9409952B2, “Peptide-compound cyclization method” (Chugai Seiyaku Kabushiki Kaisha, priority 2011, dated 2016).
Read-outs that look alike come from different tables or passages of the source. Starred links: 1 amine or outer side, 2 acyl side, 3 side chain; linkers in the order of their positions; H or OH if unused. Positions of bridges follow the written chain, without caps; N, C: chain ends. Non-standard residues stand in square brackets, D forms with d. Residues, ends and D or L forms follow the SMILES beside them. *: point of attachment. Phe(4-(CH2)5CO) = O=C([C@H](Cc1ccc(CCCCCC(=O)[*:3])cc1)N[*:1])[*:2]; NMeF = CN[C@@H](Cc1ccccc1)C(=O)O; NMeI = CC[C@H](C)[C@H](NC)C(=O)O; NMeβAla = CN(CCC(=O)[*:2])[*:1]; NMeL = CN[C@@H](CC(C)C)C(=O)O; NMeV = CN[C@H](C(=O)O)C(C)C; NMeA = CN[C@@H](C)C(=O)O; Piperidide = C1CCN(*)CC1; dNMeA = CN[C@H](C)C(=O)O; NPrGly = CCCNCC(=O)O; Sar = CNCC(=O)O; tBu = CC(C)(C)*

Columns and labels:
[1] = PAMPA (parallel artificial membrane permeability assay); assay type: in vitro ADME; settings: PAMPA
Method in brief: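 Artificial membrane was 10% (w/v) egg lecithin plus 0.5% (w/v) cholesterol in dodecane on a PVDF filter. A 10 mM DMSO stock was added at 0.5% (v/v) to donor buffer (50 mM MOPSO, pH 6.5, 5.0% glycocholic acid). After 18 h at 37 °C, LC/MS or LC/UV gave donor and acceptor levels for Pe.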

[2] = Metabolic stability in human hepatic microsome; assay type: in vitro ADME; settings: microsomes
[3] = Mouse PK test of peptides (intravenous and oral administration); settings: male, C57BL/6J, in vivo, 20 mg/kg
[4] = membrane permeation rate (Pe), 50 mM MOPSO buffer pH 6.5 with 5.0% glycocholic acid, 37° C., 18 hours, read-out: iPAMPA Pe
[5] = pH 7.4, human hepatic microsome, NADPH(+), read-out: CL NADPH(+)

Row | Compound | Papp at 18 hours, 50 µM [1, 4] [×10⁻⁶ cm/s] | microsomal CLint at 1 uM [2, 5] [µL/min/mg] | AUC ([3]; iv) [ng·h/mL] | C0 ([3]; iv) [ng/mL] | Vd ([3]; iv) [L/kg] | clearance ([3]; iv) [mL/min/kg] | half-life ([3]; iv) [h] | AUC ([3]; po) [ng·h/mL] | CL/F ([3]; po) [mL/min/kg] | Cmax ([3]; po) [ng/mL] | Tmax ([3]; po) [h] | bioavailability ([3]; po) [%] | half-life ([3]; po) [h] | Papp at 18 hours, 50 µM ([1]; pH 6.5) [×10⁻⁶ cm/s] | microsomal CLint at 1 uM ([2]; human, pH 7.4, CL NADPH(+)) [µL/min/mg]
1 | CC(C)C[C@@H]1NC(=O)[C@H](Cc2ccccc2)N(C)C(=O)[C@H](Cc2ccccc2)N(C)C(=O)[C@H](CC(C)C)NC(=O)[C@H](C)N(C)C(=O)[C@H]([C@@H](C)O)NC(=O)[C@H](C)N(C)C(=O)C[C@@H](C(=O)N2CCCCC2)NC(=O)[C@H](CC(C)C)N(C)C1=O [DP-125] ([NMeA]T[NMeA]L[NMeF][NMeF]L[NMeL]D-Piperidide; lactam N-9) | 55 | 189 | 35400 | 46400 | 0.545 | 9.49 | 1.44 | 12100 | 27.5 | 3090 | 3.5 | 34.6 |  |  | 
2 | CCCN1CC(=O)N(C)[C@@H](CC(C)C)C(=O)N[C@@H](COC(C)(C)C)C(=O)N(C)[C@@H](CC(C)C)C(=O)N[C@H](C(=O)N2CCCCC2)CC(=O)N[C@H](C)C(=O)N(C)[C@@H](C)C(=O)N(C)[C@@H](Cc2ccccc2)C(=O)N(C)[C@@H](CC(C)C)C(=O)N[C@@H]([C@@H](C)O)C1=O [DP-547] ([dA][NMeA][NMeF][NMeL]T[NPrGly][NMeL]S(tBu)[NMeL]D-Piperidide; lactam N-10) | 34 | 33 | 37200 | 44500 | 0.541 | 8.98 | 1.1 | 4510 | 74.6 | 1470 | 1 | 12.1 | 1.84 |  | 
3 | CCCN1CC(=O)N(C)[C@@H](CC(C)C)C(=O)N[C@@H]([C@@H](C)O)C(=O)N(C)[C@@H](C)C(=O)N(C)[C@@H](CC(C)C)C(=O)N(C)[C@@H]([C@@H](C)CC)C(=O)N[C@@H](COC(C)(C)C)C(=O)N[C@H](C(=O)N2CCCCC2)CC(=O)N(C)[C@@H](C)C(=O)N(C)[C@@H](Cc2ccccc2)C1=O [DP-540] ([NMeA][NMeF][NPrGly][NMeL]T[NMeA][NMeL][NMeI]S(tBu)D-Piperidide; lactam N-10) | 36 | 67 | 41400 | 48100 | 0.803 | 8.16 | 1.63 | 9800 | 35.8 | 1870 | 1.83 | 23.7 | 3.11 |  | 
4 | CC[C@H](C)[C@H](NC(=O)[C@@H]1CCCN1C(=O)[C@@H]1CC(=O)N[C@@H](C)C(=O)N[C@@H](CC(C)C)C(=O)N(C)[C@@H]([C@@H](C)CC)C(=O)N[C@@H](C(C)C)C(=O)N(C)[C@@H](Cc2ccccc2)C(=O)N[C@@H](CC(C)C)C(=O)N(C)[C@@H](Cc2ccccc2)C(=O)N1)C(=O)N1CCCCC1 [DP-965] (AL[NMeI]V[NMeF]L[NMeF]DPI-Piperidide; lactam N-8) | 16 | 56 | 193000 | 171000 | 0.403 | 1.73 | 2.99 | 13700 | 28.9 | 1920 | 2.67 | 7.12 | 2.99 |  | 
5 | CC[C@H](C)[C@H]1C(=O)N[C@H](C(=O)N2CCCCC2)CC(=O)N[C@H](C(C)C)C(=O)N(C)[C@@H](Cc2ccccc2)C(=O)N(C)[C@@H](CC(C)C)C(=O)N[C@@H]([C@@H](C)O)C(=O)N(C)CC(=O)N(C)[C@@H](CC(C)C)C(=O)N[C@@H](COC(C)(C)C)C(=O)N1C [DP-265] ([dV][NMeF][NMeL]T[Sar][NMeL]S(tBu)[NMeI]D-Piperidide; lactam N-9) | 42 | 58 | 35300 | 58300 | 0.713 | 9.48 | 1.82 | 5120 | 65.1 | 2850 | 0.67 | 14.5 | 1.96 |  | 
6 | CC[C@H](C)[C@@H]1NC(=O)[C@H](C)N(C)C(=O)[C@H](Cc2ccccc2)N(C)C(=O)[C@@H](C)N(C)C(=O)C[C@@H](C(=O)N(C)[C@@H](Cc2ccccc2)C(=O)N(C)[C@@H](Cc2ccccc2)C(=O)N[C@@H](C)C(=O)N2CCCCC2)NC(=O)[C@H](C)N(C)C(=O)[C@H]([C@@H](C)O)NC(=O)[C@H](C)N(C)C(=O)[C@H](CC(C)C)N(C)C(=O)[C@H](C)N(C)C1=O [DP-455] ([dNMeA][NMeF][NMeA]I[NMeA][NMeL][NMeA]T[NMeA]D[NMeF][NMeF]A-Piperidide; lactam N-10) | 15 | 17 |  |  |  |  |  |  |  |  |  |  |  |  | 
7 | CC(C)C[C@@H](C(=O)N[C@@H](C)C(=O)N1CCCCC1)N(C)C(=O)[C@@H]1CC(=O)N[C@H](C(C)C)C(=O)N[C@@H]([C@@H](C)O)C(=O)N(C)[C@@H](C)C(=O)N(C)[C@@H](Cc2ccccc2)C(=O)N(C)[C@@H](Cc2ccccc2)C(=O)N[C@@H](COC(C)(C)C)C(=O)N(C)[C@@H](CC(C)C)C(=O)NCC(=O)N1 [DP-575] ([dV]T[NMeA][NMeF][NMeF]S(tBu)[NMeL]GD[NMeL]A-Piperidide; lactam N-9) | 28 | 70 |  |  |  |  |  |  |  |  |  |  |  |  | 
8 | CC(C)C[C@H]1C(=O)N[C@@H](COC(C)(C)C)C(=O)N[C@H](C(=O)N2CCCCC2)CC(=O)N[C@H](C)C(=O)N(C)[C@@H](Cc2ccccc2)C(=O)N(C)[C@@H](CC(C)C)C(=O)N[C@@H]([C@@H](C)O)C(=O)N(C)[C@@H](C)C(=O)N1C [DP-529] ([dA][NMeF][NMeL]T[NMeA][NMeL]S(tBu)D-Piperidide; lactam N-8) | 23 | 100 |  |  |  |  |  |  |  |  |  |  |  |  | 
9 | CC[C@H](C)[C@@H]1NC(=O)[C@H](C)NC(=O)C[C@@H](C(=O)N(C)[C@@H](CC(C)C)C(=O)N(C)[C@@H](C)C(=O)N(C)[C@@H](Cc2ccccc2)C(=O)N[C@@H](C)C(=O)N2CCCCC2)NC(=O)[C@@H]2CCCN2C(=O)[C@H](CC(C)C)NC(=O)[C@H](Cc2ccccc2)N(C)C(=O)[C@H]([C@@H](C)O)NC(=O)[C@H](Cc2ccccc2)N(C)C(=O)[C@H](C)N(C)C1=O [DP-667] (AI[NMeA][NMeF]T[NMeF]LPD[NMeL][NMeA][NMeF]A-Piperidide; lactam N-9) | 19 | 39 |  |  |  |  |  |  |  |  |  |  |  |  | 
10 | CC[C@H](C)[C@@H]1NC(=O)[C@@H](C(C)C)NC(=O)C[C@@H](C(=O)N2CCCCC2)NC(=O)[C@H](C)N(C)C(=O)[C@H](CC(C)C)N(C)C(=O)CN(C)C(=O)[C@H]([C@@H](C)O)NC(=O)[C@H](Cc2ccccc2)N(C)C(=O)[C@H](CC(C)C)N(C)C(=O)[C@H](C)NC(=O)[C@H](C(C)C)N(C)C(=O)[C@H](Cc2ccccc2)N(C)C1=O [DP-132] ([dV]I[NMeF][NMeV]A[NMeL][NMeF]T[Sar][NMeL][NMeA]D-Piperidide; lactam N-12) | 39 | 37 |  |  |  |  |  |  |  |  |  |  |  |  | 
11 | CC[C@H](C)[C@H]1C(=O)N[C@H](C(=O)N2CCCCC2)Cc2ccc(cc2)CCCCCC(=O)N[C@@H](CC(C)C)C(=O)N2CCC[C@H]2C(=O)N(C)[C@@H](C(C)C)C(=O)N[C@@H](Cc2ccccc2)C(=O)N(C)[C@@H](Cc2ccccc2)C(=O)N(C)[C@@H](CC(C)C)C(=O)N[C@@H](C)C(=O)N1C [DP-871] (LP[NMeV]F[NMeF][NMeL]A[NMeI][Phe(4-(CH2)5CO)]-Piperidide; lactam N-9) | 1.2 | 389 |  |  |  |  |  |  |  |  |  |  |  |  | 
12 | CC(C)C[C@H]1C(=O)N(C)[C@@H](Cc2ccccc2)C(=O)N(C)[C@@H](C(C)C)C(=O)N[C@@H](Cc2ccccc2)C(=O)N[C@H](C(=O)N(C)[C@@H](Cc2ccccc2)C(=O)N[C@@H](C)C(=O)N2CCCCC2)CC(=O)N(C)[C@@H](C)C(=O)N[C@@H](C(C)C)C(=O)N(C)[C@@H](CC(C)C)C(=O)N[C@@H]([C@@H](C)O)C(=O)NCC(=O)N1C [DP-191] ([NMeA]V[NMeL]TG[NMeL][NMeF][NMeV]FD[NMeF]A-Piperidide; lactam N-10) | 34 | 46 |  |  |  |  |  |  |  |  |  |  |  |  | 
13 | CC[C@H](C)[C@H]1C(=O)N(C)CC(=O)N(C)[C@@H](Cc2ccccc2)C(=O)N[C@H](C(=O)N2CCCCC2)CC(=O)N(C)CCC(=O)N(C)[C@@H](C(C)C)C(=O)N(C)[C@@H](CC(C)C)C(=O)N[C@@H](CC(C)C)C(=O)N[C@@H]([C@@H](C)O)C(=O)N(C)[C@@H](C)C(=O)N[C@@H](Cc2ccccc2)C(=O)N1C [DP-68] ([NMeβAla][NMeV][NMeL]LT[NMeA]F[NMeI][Sar][NMeF]D-Piperidide; lactam N-11) |  |  |  |  |  |  |  |  |  |  |  |  |  | 26 | 35
